Data on 17 molecules can be found in ChEMBL document CHEMBL4261568, “Pyrimidine Nucleotides Containing a (S)-Methanocarba Ring as P2Y6 Receptor Agonists” (Medchemcomm, 2017).

Series [1] addresses P2Y purinoceptor 1 (Homo sapiens) (UniProt P47900). The series can be described thus: Agonist activity at human P2Y1 receptor expressed in human 1321N1 cells assessed as induction of calcium mobilization at 10 uM measured over 2 mins by Fluo-4 dye-based FLIPR method relative to control. The format is functional, cell-based.
The target is the same in series [2]. The series can be described thus: Antagonist activity at human P2Y1 receptor expressed in human 1321N1 cells assessed as inhibition of calcium mobilization at 10 uM measured over 2 mins by Fluo-4 dye-based FLIPR method relative to control. The class given is functional, cell-based.
In series [3] the target is P2Y purinoceptor 2 (Homo sapiens) (UniProt P41231). The series can be described thus: Agonist activity at human P2Y2 receptor expressed in human 1321N1 cells assessed as induction of calcium mobilization at 10 uM measured over 2 mins by Fluo-4 dye-based FLIPR method relative to control. The format is functional, cell-based.
Chain of P2Y purinoceptor 2 (Homo sapiens) (P41231 whole entry): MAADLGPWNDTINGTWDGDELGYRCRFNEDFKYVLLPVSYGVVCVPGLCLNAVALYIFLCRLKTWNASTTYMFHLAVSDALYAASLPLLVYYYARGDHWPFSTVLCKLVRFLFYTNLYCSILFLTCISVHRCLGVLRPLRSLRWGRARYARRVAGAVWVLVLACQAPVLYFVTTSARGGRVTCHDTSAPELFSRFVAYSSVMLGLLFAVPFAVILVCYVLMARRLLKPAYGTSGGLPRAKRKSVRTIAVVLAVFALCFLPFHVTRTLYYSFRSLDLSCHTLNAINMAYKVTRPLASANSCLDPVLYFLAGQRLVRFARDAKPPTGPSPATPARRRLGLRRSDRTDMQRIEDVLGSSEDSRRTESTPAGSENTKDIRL
Series [4] has the same target. The series can be described thus: Antagonist activity at human P2Y2 receptor expressed in human 1321N1 cells assessed as inhibition of calcium mobilization at 10 uM measured over 2 mins by Fluo-4 dye-based FLIPR method relative to control. The format is functional, cell-based.
For series [5], the target named is P2Y purinoceptor 4 (Homo sapiens) (UniProt P51582). Description: Antagonist activity at human P2Y4 receptor expressed in human 1321N1 cells assessed as inhibition of calcium mobilization at 10 uM measured over 2 mins by Fluo-4 dye-based FLIPR method relative to control. The format is functional, cell-based.
Chain of P2Y purinoceptor 4 (Homo sapiens) (P51582 whole entry): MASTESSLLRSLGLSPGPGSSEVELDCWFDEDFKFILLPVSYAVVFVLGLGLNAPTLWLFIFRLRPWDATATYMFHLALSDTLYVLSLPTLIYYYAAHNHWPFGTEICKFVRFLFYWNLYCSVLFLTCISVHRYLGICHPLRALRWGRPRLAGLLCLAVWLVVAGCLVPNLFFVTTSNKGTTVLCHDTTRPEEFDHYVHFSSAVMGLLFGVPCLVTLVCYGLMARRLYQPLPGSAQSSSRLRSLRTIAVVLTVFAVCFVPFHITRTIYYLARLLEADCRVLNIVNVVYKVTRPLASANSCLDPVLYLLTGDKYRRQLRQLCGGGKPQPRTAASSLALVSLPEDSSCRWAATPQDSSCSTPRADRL
The target in the next series is P2Y purinoceptor 6 (Homo sapiens, UniProt Q15077). Description: Agonist activity at human P2Y6 receptor expressed in human 1321N1 cells assessed as induction of calcium mobilization by FLIPR method. The class given is functional, cell-based.
Chain of P2Y purinoceptor 6 (Q15077 whole entry): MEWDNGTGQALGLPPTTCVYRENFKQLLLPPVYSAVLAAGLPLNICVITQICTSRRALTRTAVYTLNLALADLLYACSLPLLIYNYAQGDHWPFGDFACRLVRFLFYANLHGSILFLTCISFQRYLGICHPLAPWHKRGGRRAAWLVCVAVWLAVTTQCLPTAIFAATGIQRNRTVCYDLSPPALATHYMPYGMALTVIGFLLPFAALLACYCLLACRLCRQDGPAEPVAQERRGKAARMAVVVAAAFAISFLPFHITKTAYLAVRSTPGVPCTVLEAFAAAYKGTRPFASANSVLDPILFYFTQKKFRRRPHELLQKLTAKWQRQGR
In series [6] the target is T1, P2Y purinoceptor 11 (Homo sapiens) (UniProt Q96G91).
T1 sequence (whole entry): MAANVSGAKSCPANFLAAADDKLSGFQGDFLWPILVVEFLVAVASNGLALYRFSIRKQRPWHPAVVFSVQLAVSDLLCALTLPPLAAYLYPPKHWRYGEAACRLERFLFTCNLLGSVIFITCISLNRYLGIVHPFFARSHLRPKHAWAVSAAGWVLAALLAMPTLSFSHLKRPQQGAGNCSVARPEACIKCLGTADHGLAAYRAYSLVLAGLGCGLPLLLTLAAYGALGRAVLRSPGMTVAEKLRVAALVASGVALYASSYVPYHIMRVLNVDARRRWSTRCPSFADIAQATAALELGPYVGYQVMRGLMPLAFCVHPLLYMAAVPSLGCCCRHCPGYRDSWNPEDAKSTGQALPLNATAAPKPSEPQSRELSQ
Description: Antagonist activity at human P2Y11 receptor expressed in human 1321N1 cells assessed as inhibition of calcium mobilization at 10 uM measured over 2 mins by Fluo-4 dye-based FLIPR method relative to control. The format is functional, cell-based.

In series [7] the target is P2Y purinoceptor 4 (Homo sapiens) (UniProt P51582). The series can be described thus: Agonist activity at human P2Y4 receptor expressed in human 1321N1 cells assessed as induction of calcium mobilization at 10 uM measured over 2 mins by Fluo-4 dye-based FLIPR method relative to control. The class given is functional, cell-based.
For series [8], the target named is T2, P2Y purinoceptor 14 (Homo sapiens) (UniProt Q15391).
T2 sequence (whole entry): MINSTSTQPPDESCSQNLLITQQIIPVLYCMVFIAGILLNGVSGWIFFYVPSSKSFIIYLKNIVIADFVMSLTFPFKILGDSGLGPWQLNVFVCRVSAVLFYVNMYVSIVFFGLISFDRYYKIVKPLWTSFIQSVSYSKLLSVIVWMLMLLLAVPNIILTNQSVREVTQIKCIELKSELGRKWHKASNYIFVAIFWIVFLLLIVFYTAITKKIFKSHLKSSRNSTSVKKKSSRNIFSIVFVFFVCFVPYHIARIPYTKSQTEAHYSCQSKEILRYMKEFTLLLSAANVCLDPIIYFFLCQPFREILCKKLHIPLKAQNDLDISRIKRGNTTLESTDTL
Description: Agonist activity at human P2Y14 receptor expressed in human 1321N1 cells assessed as induction of calcium mobilization at 10 uM measured over 2 mins by Fluo-4 dye-based FLIPR method relative to control. The class given is functional, cell-based.

Series [9] can be described thus: Half life in human 1321N1 cell membranes. The class given is ADME, cell-based.

The source made the active and inactive calls. No cut-off for these calls is given here.

Chain of P2Y purinoceptor 1 (Homo sapiens) (P47900 whole entry): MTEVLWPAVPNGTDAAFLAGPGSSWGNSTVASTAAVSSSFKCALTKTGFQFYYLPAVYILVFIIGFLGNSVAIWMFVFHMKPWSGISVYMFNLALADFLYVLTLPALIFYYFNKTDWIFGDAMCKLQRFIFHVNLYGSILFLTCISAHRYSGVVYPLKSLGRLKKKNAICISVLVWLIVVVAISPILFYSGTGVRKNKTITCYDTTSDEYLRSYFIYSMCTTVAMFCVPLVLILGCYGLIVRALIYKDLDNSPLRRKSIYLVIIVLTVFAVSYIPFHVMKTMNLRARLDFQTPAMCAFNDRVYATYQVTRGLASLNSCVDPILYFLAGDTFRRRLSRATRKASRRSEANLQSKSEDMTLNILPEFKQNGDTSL

`CO/N=c1/ccn([C@]23C[C@H]2[C@H](COP(=O)(O)OP(=O)(O)O)[C@@H](O)[C@H]3O)c(=O)[nH]1`: the values for the %max in series [1], in [3] and in series [7] were -0.5%, 8.9% and 2.2%, respectively. Moreover, the Imax in series [2] was 17%; in [4], 16.8%; in series [5], 10%; in [6], -3.9%. Moreover, the EC50 on P2Y purinoceptor 6 amounted to 493 nM.
`O=c1ccn([C@@H]2O[C@H](COP(=O)(O)OP(=O)(O)O)[C@@H](O)[C@H]2O)c(=O)[nH]1`: at P2Y purinoceptor 6, the EC50 is 132 nM.
`CO/N=c1/ccn([C@]23C[C@H]2[C@H](COP(=O)(O)CP(=O)(O)O)[C@@H](O)[C@H]3O)c(=O)[nH]1`: the EC50 on P2Y purinoceptor 6 turned out to be 6290 nM.
In the case of `O=c1ccn([C@]23C[C@H]2[C@H](COP(=O)(O)OP(=O)(O)O)[C@@H](O)[C@H]3O)c(=O)[nH]1`, the EC50 at P2Y purinoceptor 6 was found to be 438 nM. Moreover, the outcome in series [8] was inactive.
With `CO/N=c1/ccn([C@]23C[C@H]2[C@H](COP(=O)(O)OP(=O)(O)OP(=O)(O)OC[C@H]2O[C@@H](n4ccc(=O)[nH]c4=O)[C@H](O)[C@@H]2O)[C@@H](O)[C@H]3O)c(=O)[nH]1`, the %max in series [1] was -0.6%; in series [3], 16%; in series [7], 10.2%. Besides, the Imax was 56.8% in [2], 40.3% in series [4], 25% in [5] and 0.1% in series [6]. For the same molecule, the EC50 on P2Y purinoceptor 6 amounted to 4120 nM.
With `O=c1[nH]/c(=N\OCc2ccccc2)ccn1[C@]12C[C@H]1[C@H](COP(=O)(O)OP(=O)(O)O)[C@@H](O)[C@H]2O`, on P2Y purinoceptor 6, the EC50 worked out at 793 nM.
Turning to `CO/N=c1/ccn([C@]23C[C@H]2[C@H](COP(=O)(O)OP(=O)(O)OP(=O)(O)OC[C@@H]2[C@@H](O)[C@@H](O)[C@@]4(n5cc/c(=N/OC)[nH]c5=O)C[C@@H]24)[C@@H](O)[C@H]3O)c(=O)[nH]1`, the half-maximal effective concentration (EC50) at P2Y purinoceptor 6 stood at 5490 nM.
The same measure, in the same setting: as for `O=c1ccn([C@]23C[C@H]2[C@H](COP(=O)(O)CP(=O)(O)O)[C@@H](O)[C@H]3O)c(=O)[nH]1`, the figure is 47100 nM.
Molecule `CO/N=c1/ccn([C@@H]2O[C@H](COP(=O)(O)OP(=O)(O)O)[C@@H](O)[C@H]2O)c(=O)[nH]1` displayed a half-life in series [9] of 55 min.
As for `O=c1[nH]/c(=N\OCc2ccccc2)ccn1[C@]12C[C@H]1[C@H](COP(=O)(O)CP(=O)(O)O)[C@@H](O)[C@H]2O`, at P2Y purinoceptor 6, the concentration for a half-maximal effect (EC50) stood at 4960 nM.
On the same count and under the same terms, as for `CO/N=c1/ccn([C@@H]2O[C@H](COP(=O)(O)CP(=O)(O)O)[C@@H](O)[C@H]2O)c(=O)[nH]1`, the figure is 420 nM.
Take `CCN(CC)CC.CCN(CC)CC.CO/N=c1/ccn([C@@H]2O[C@H](COP(=O)(O)OP(=O)(O)OP(=O)(O)OC[C@H]3O[C@@H](n4ccc(=O)[nH]c4=O)[C@H](O)[C@@H]3O)[C@@H](O)[C@H]2O)c(=O)[nH]1`: the EC50 on P2Y purinoceptor 6 came out at 1200 nM. This molecule also showed a half-life in series [9] of 23 min.
Regarding `CO/N=c1/ccn([C@]23C[C@H]2[C@H](COP(=O)(O)OP(=O)(O)OP(=O)(O)OC[C@@]24C[C@@H]2[C@@H](n2ccc(=O)[nH]c2=O)[C@H](O)[C@@H]4O)[C@@H](O)[C@H]3O)c(=O)[nH]1`, at P2Y purinoceptor 6, the EC50 was 705 nM.
The same measure, in the same setting: to `CO/N=c1/ccn([C@]23C[C@H]2[C@H](COP(=O)(O)OP(=O)(O)OP(=O)(O)OC[C@@H]2[C@@H](O)[C@@H](O)[C@@]4(n5ccc(=O)[nH]c5=O)C[C@@H]24)[C@@H](O)[C@H]3O)c(=O)[nH]1` belongs 6900 nM; to `O=c1[nH]c(=O)n([C@@H]2O[C@H](COP(=O)(O)OP(=O)(O)O)[C@@H](O)[C@H]2O)cc1I`, 49.1 nM.
Consider `O=c1[nH]/c(=N\OCc2ccccc2)ccn1[C@@H]1O[C@H](COP(=O)(O)CP(=O)(O)O)[C@@H](O)[C@H]1O`, for which, on P2Y purinoceptor 6, the EC50 stood at 2360 nM.
On the same count and under the same terms, to `O=c1[nH]c(=O)n([C@]23C[C@H]2[C@H](COP(=O)(O)OP(=O)(O)O)[C@@H](O)[C@H]3O)cc1I` belongs 440 nM.
